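Each compound was tested at five concentrations against cells in 96-well plates for 48 hours. At the GI50, growth is halved. TGI denotes the concentration required for complete inhibition of growth.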
What was measured:
Assay in all cases: growth of human tumour cells (NCI), 48 h
[1] = system: UACC-257 melanoma
[2] = system: CCRF-CEM leukemia
[3] = system: TK-10 renal
[4] = system: NCI/ADR-RES ovarian
[5] = system: NCI-H23 lung
[6] = system: SW-620 colon
[7] = system: UO-31 renal
[8] = system: UACC-62 melanoma
[9] = system: HCC-2998 colon
[10] = system: SK-MEL-28 melanoma

Structure (SMILES) | TGI [1] [µM] | TGI [2] [µM] | TGI [3] [µM] | TGI [4] [µM] | TGI [5] [µM] | TGI [6] [µM] | TGI [7] [µM] | TGI [8] [µM] | TGI [9] [µM] | TGI [10] [µM] | GI50 [1] [µM] | GI50 [2] [µM] | GI50 [3] [µM] | GI50 [4] [µM] | GI50 [5] [µM] | GI50 [6] [µM] | GI50 [7] [µM] | GI50 [8] [µM] | GI50 [9] [µM] | GI50 [10] [µM]
CC(=O)C(CN1CCOCC1)C(c1ccccc1)c1c(O)c2ccccc2oc1=O (stereo not given) | > 100 | > 100 | > 100 | > 100 | > 100 | > 100 | > 100 | > 100 | > 100 | > 100 | – | – | – | – | – | – | – | – | – | –
CCN1C(=O)N(CC)C2C1NN=c1s/c(=C\c3ccc([N+](=O)[O-])cc3)c(=O)n12 (stereo not given) | 70 | > 46.7 | > 100 | > 45.2 | > 100 | > 100 | > 100 | > 100 | > 100 | > 100 | 1.17 | 0.411 | > 35.4 | 0.396 | 1.11 | 0.379 | 0.903 | 0.5 | 1.61 | 1.93
Cc1ccc2c(c1)/C(=N\N=C/c1cn(C(C)C)c3ccccc13)C(=O)N2 | > 100 | > 100 | > 100 | > 100 | > 100 | > 100 | > 100 | > 100 | 14.9 | > 100 | 5.05 | 0.367 | 15 | 73 | 4.56 | 0.937 | 1.98 | 2.69 | 2.42 | 21.9
Oc1ccc(-c2nc(-c3ccc(F)cc3)c(-c3ccncc3)[nH]2)cc1 | 63.1 | 59.8 | > 100 | > 100 | > 100 | > 100 | 20.2 | 15.1 | > 100 | 84.7 | 13.9 | 9.62 | 7.89 | 35.6 | 36.2 | 32.1 | 3.44 | 3 | 36.7 | 6.05
CC(=O)NNc1nc(C)c(C(/C=C/c2ccc3c(c2)OCO3)=N/NC(=O)c2ccncc2)s1 | > 100 | > 100 | > 100 | > 100 | > 100 | > 100 | > 100 | > 100 | > 100 | > 100 | – | – | – | – | – | – | – | – | – | –
C/C=C(\C)C(=O)O[C@@H]1C=CC(=O)O[C@H]1COC(=O)[C@H](C)O | 46.8 | 17 | 25.8 | 56.8 | 50.6 | 15.9 | 27.5 | 25.5 | 28.7 | 27.9 | 13.4 | 0.733 | 13 | 14.6 | 18.4 | 4.79 | 12.7 | 12.4 | 14.8 | 12.4
C[C@@H](Oc1cc(-n2cnc3ccc(OCC4CCN(C)CC4)cc32)sc1C(N)=O)c1ccccc1C(F)(F)F | 4.51 | 3.3 | 3.98 | 3.87 | 3.37 | 3.5 | 4.33 | 3.02 | 2.98 | 4.58 | 0.179 | 0.0673 | 0.427 | 0.477 | 0.118 | 0.0648 | 0.948 | 0.0964 | 0.0859 | 0.637
COc1cc2c(cc1OCCCN1CCN(CCCOc3cc4c(cc3OC)C(=O)C3CCC[C@H]3C=N4)CC1)N=C[C@@H]1CCCC1C2=O (stereo not given in full) | > 46.4 | > 74.3 | > 100 | > 100 | 14.1 | > 35 | > 51.3 | 15.2 | 17.5 | > 100 | 13 | 0.478 | 7.9 | > 100 | 5.42 | 1.19 | 17.1 | 6.49 | 7.21 | 32.9
Nc1nccc(C#Cc2cncnc2Nc2ccc(OCc3cccc(F)c3)c(Cl)c2)n1 | 7.64 | > 19.2 | 8.22 | > 25 | 8.92 | 7.66 | 10.1 | 7.68 | 7.55 | 8.29 | 3.92 | 1.33 | 4.5 | 6.6 | 4.22 | 3 | 4.34 | 4.09 | 4.1 | 4.57
